Calls of active or inactive are those of the source. The calls are words filed in the database; no cut-off is given here.
Experiments:
Cholinesterase = Cholinesterase (Canis lupus familiaris, UniProt P32750); experiment: Inhibition of dog serum BChE using butrylthiocholine iodide as substrate by spectrophotometry based Ellman's method
Acetylcholinesterase [1] = target: Acetylcholinesterase (Electrophorus electricus, UniProt O42275); experiment: Inhibition of Electric eel AChE using […] as substrate by spectrophotometry based Ellman's method
Acetylcholinesterase (Electrophorus electricus, UniProt O42275), sequence (O42275 whole entry): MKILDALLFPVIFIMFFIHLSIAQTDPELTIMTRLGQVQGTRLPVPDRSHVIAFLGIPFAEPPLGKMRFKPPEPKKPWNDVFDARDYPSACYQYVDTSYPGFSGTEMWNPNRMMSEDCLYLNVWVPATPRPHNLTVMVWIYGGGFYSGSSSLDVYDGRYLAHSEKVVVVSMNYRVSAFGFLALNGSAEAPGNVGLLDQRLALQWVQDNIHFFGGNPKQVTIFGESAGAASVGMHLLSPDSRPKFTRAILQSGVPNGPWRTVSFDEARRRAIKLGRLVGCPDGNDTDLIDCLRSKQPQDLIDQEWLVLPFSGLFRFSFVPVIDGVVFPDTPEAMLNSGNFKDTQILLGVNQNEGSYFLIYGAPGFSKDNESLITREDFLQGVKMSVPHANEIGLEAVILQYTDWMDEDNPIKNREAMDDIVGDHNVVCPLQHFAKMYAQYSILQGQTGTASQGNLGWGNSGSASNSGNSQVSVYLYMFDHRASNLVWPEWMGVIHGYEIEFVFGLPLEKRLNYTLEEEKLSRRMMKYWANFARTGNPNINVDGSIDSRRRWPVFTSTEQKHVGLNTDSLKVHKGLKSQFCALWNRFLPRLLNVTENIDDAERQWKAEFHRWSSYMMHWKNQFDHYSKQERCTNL

Acetylcholinesterase [2] = target: T1, Acetylcholinesterase (Homo sapiens, UniProt P22303); experiment: Inhibition of AChE (unknown origin)
T1 sequence (P22303 whole entry): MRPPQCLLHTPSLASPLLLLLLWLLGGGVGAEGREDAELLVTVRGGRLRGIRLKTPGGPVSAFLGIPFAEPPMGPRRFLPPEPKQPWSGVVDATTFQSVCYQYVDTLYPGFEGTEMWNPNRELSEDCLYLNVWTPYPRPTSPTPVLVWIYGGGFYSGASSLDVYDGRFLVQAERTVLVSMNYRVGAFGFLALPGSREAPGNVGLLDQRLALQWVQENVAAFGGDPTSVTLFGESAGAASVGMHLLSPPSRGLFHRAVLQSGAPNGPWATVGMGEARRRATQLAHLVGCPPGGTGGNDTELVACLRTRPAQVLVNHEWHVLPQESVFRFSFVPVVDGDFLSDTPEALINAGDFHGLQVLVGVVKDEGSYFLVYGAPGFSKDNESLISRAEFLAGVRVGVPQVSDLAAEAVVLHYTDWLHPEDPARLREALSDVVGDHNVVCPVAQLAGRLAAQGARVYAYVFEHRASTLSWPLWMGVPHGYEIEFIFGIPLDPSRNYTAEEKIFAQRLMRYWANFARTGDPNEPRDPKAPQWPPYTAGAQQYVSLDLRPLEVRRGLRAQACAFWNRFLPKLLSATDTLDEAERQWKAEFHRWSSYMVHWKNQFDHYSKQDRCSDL

Acetylcholinesterase [3] = target: T1, Acetylcholinesterase; experiment: Inhibition of AChE (unknown origin) using […] as substrate incubated for 15 mins by Ellman's method
[4] = Selectivity index, ratio of IC50 for dog serum BChE to IC50 for Electric eel AChE
[5] = target: Acetylcholinesterase (Electrophorus electricus) (UniProt O42275); experiment: Competitive inhibition of Electric eel AChE using […] as substrate by spectrophotometry based Lineweaver-Burk plot analysis
Acetylcholinesterase (Electrophorus electricus), sequence (O42275 24-633 limits assumed): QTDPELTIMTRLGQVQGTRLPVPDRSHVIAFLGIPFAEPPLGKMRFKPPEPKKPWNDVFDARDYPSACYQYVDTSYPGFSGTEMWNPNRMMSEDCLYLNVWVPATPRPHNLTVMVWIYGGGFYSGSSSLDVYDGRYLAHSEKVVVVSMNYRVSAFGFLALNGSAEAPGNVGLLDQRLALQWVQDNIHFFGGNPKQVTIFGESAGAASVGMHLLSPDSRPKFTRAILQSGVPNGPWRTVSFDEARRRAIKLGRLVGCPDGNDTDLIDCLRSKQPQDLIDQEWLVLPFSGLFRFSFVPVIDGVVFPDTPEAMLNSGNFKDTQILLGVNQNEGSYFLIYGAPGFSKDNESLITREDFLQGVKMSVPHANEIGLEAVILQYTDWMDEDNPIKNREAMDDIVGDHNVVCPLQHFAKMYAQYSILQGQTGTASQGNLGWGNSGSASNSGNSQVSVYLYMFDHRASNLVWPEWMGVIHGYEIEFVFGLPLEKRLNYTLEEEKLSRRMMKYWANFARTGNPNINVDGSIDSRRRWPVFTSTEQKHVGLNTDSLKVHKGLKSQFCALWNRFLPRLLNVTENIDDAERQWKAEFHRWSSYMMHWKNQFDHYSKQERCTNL

Cholinesterase, sequence (P32750 whole entry): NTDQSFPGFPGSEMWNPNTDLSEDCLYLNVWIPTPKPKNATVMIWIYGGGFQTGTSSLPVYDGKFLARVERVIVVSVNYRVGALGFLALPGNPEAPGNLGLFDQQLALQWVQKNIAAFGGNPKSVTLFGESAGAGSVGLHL

`COc1ccc(CC(=O)Nc2ncc(-c3ccc(OCCCCCN4CCCC4)cc3)s2)cc1OC` showed an IC50 (Cholinesterase) of 9.85 µM and an IC50 (Acetylcholinesterase [1]) of 3.34 µM.

With `COc1ccc(CC(=O)Nc2ncc(-c3ccc(OCCCN4CCCC4)cc3)s2)cc1OC` the IC50 (Cholinesterase) was 6.89 µM and the IC50 (Acetylcholinesterase [1]) was 6.51 µM.

`COc1ccc(CC(=O)Nc2ncc(-c3ccc(OCCCCNC4CCN(Cc5ccccc5)CC4)cc3)s2)cc1OC` showed an IC50 (Cholinesterase) of 7.23 µM and an IC50 (Acetylcholinesterase [1]) of 4.24 µM.

With `COc1ccc(-c2csc(NC(=O)CCN3CCCC3)n2)cc1` the IC50 (Acetylcholinesterase [2]) was 510 nM.

`COc1ccc(C(=O)Nc2ncc(-c3ccc(OCCCN4CCCC4)cc3)s2)cc1OC` gave an IC50 (Cholinesterase) of 8.1 µM and an IC50 (Acetylcholinesterase [1]) of 39.3 µM.

Work on `COc1ccc(CCC(=O)Nc2nc(-c3cc4ccccc4oc3=O)cs2)cc1OC` yielded an IC50 (Acetylcholinesterase [3]) of 740 nM.

Work on `COc1ccc(CC(=O)Nc2ncc(-c3ccc(OCCCN4CCCC4)cc3)s2)cc1` yielded an IC50 (Cholinesterase) of 9.01 µM and an IC50 (Acetylcholinesterase [1]) of 37.3 µM.

`COc1ccc(CC(=O)Nc2ncc(-c3ccc(OCCN4CCCC4)cc3)s2)cc1OC` gave an IC50 (Cholinesterase) of 23.9 µM and an IC50 (Acetylcholinesterase [1]) of 6.31 µM.

Molecule `COc1ccc(CC(=O)Nc2ncc(-c3ccc(OCCCCN4CCCC4)cc3)s2)cc1OC` has an IC50 (Cholinesterase) of 10.2 µM, a Ratio IC50 [4] of 16 and an IC50 (Acetylcholinesterase [1]) of 0.66 µM. The inhibition [5] was “Active”.

In the case of `COc1ccc(CC(=O)Nc2ncc(-c3ccc(OCCCCN4CCCCC4)cc3)s2)cc1OC`, the IC50 (Cholinesterase) is reported as 49.2 µM, the Ratio IC50 [4] is reported as 52 and the IC50 (Acetylcholinesterase [1]) is reported as 0.95 µM.

Molecule `COc1cc(CC(=O)Nc2ncc(-c3ccc(OCCCN4CCCC4)cc3)s2)cc(OC)c1OC` has an IC50 (Cholinesterase) of 17.3 µM and an IC50 (Acetylcholinesterase [1]) of 7.84 µM.

`COc1ccc(CC(=O)Nc2ncc(-c3ccc(OCCCCSc4ccncc4)cc3)s2)cc1OC` showed an IC50 (Cholinesterase) of 14.3 µM and an IC50 (Acetylcholinesterase [1]) of 5.5 µM.

`COc1ccc(CC(=O)Nc2ncc(-c3ccc(OCCCCN4CCN(Cc5ccccc5)CC4)cc3)s2)cc1OC` gave an IC50 (Cholinesterase) of 41 µM and an IC50 (Acetylcholinesterase [1]) of 5.75 µM.

For `C/C=C1\[C@H]2C=C(C)C[C@]1(N)c1ccc(=O)[nH]c1C2` [HUPERZINE A], the IC50 (Cholinesterase) was greater than 10000 µM.

With `CCN(C)C(=O)Oc1cccc([C@H](C)N(C)C)c1` [RIVASTIGMINE] the IC50 (Cholinesterase) was 6.27 µM.

Source: ChEMBL document CHEMBL4627271, “Design, synthesis and evaluation of new 4-arylthiazole-2-amine derivatives as acetylcholinesterase inhibitors” (Bioorg Med Chem Lett, 2020)
